Experimental data as given in ChEMBL document CHEMBL3425398, “(Dis)similar Analogues of Riboswitch Metabolites as Antibacterial Lead Compounds” (J Med Chem, 2015).
≈ marks a conversion by molar mass, not a printed value.

How the values were obtained:
[1] = Binding affinity to lysC riboswitch in Bacillus subtilis
[2] = Binding affinity to TPP riboswitch in Escherichia coli
[3] = Binding affinity to TPP riboswitch in Bacillus subtilis
[4] = Binding affinity to thiC riboswitch in Escherichia coli
[5] = Binding affinity to thiM riboswitch in Escherichia coli
Bacillus subtilis = experiment: Antibacterial activity against Bacillus subtilis in chemical defined medium; assay type: functional
Staphylococcus aureus [6] = experiment: Antibacterial activity against Staphylococcus aureus in rich cation-adjusted Muller-Hinton broth; assay type: functional
Staphylococcus aureus [7] = experiment: Antibacterial activity against Staphylococcus aureus in rich cation-adjusted Muller-Hinton broth in presence of 1.5 mM DTT; assay type: functional
[8] = Binding affinity to guanine riboswitch in Bacillus subtilis
[9] = Activation of glmS riboswitch in Staphylococcus aureus
[10] = Activation of glmS riboswitch in Bacillus subtilis

NCCCC[C@H](N)C(=O)O [LYSINE]
Kd [1]: 360 nM

Cc1ncc(Cn2cc(CCOP(=O)(O)OP(=O)(O)O)nn2)c(N)n1
Kd [2]: 370 nM

Cc1ncc(C[n+]2csc(CCOP(=O)([O-])OP(=O)(O)O)c2C)c(N)n1 [THIAMIN DIPHOSPHATE]
Kd [3]: 50 nM | Kd [4]: 100 nM | Kd [5]: 600 nM

NCCOC[C@H](N)C(=O)O
Kd [1]: 13000 nM | MIC (Bacillus subtilis): 26 µM (≈ 3.85 µg/mL)

Nc1nc(N)c(N)c(=O)[nH]1
MIC (Staphylococcus aureus [6]): 4000 µM (≈ 565 µg/mL) | MIC (Staphylococcus aureus [7]): 14 µM | Kd [8]: 100 nM

Nc1nc2[nH]cnc2/c(=N\O)[nH]1
Kd [8]: 20 nM

CC(=O)Nc1nc(=O)c2[nH]cnc2[nH]1
Kd [8]: 0.5 nM

NC/C=C/CC(N)C(=O)O (racemic)
Kd [1]: 970 nM

Nc1nc2[nH]cnc2c(=O)[nH]1 [GUANINE]
Kd [8]: 5 nM

N=C(N)NCCCC[C@H](N)C(=O)O
Kd [1]: 7000 nM

N[C@@H]1[C@@H](O)[C@H](O)[C@@H](COP(=O)(O)O)C[C@@H]1O
EC50 [9]: 6200 nM

NCCSC[C@H](N)C(=O)O
Kd [1]: 30000 nM | MIC (Bacillus subtilis): 26 µM (≈ 4.27 µg/mL)

N[C@H]1C(O)O[C@H](COP(=O)(O)O)[C@@H](O)[C@@H]1O (stereo partly specified)
EC50 [10]: 200000 nM

Cc1ncc(C[n+]2cccc(CCOP(=O)([O-])OP(=O)(O)O)c2C)c(N)n1
Kd [3]: 160 nM

Cc1ncc(Cn2nnc(CCOP(=O)(O)CP(=O)(O)O)c2C)c(N)n1
Kd [2]: 9 nM
